# Results published in ChEMBL document CHEMBL4610051, “Spirobiflavonoid stereoisomers from the endangered conifer Glyptostrobus pensilis and their protein tyrosine phosphatase 1B inhibitory activity” (Bioorg Med Chem Lett, 2020).
# pIC50: −log10 of the molar value.
# Biological target: T1, Tyrosine-protein phosphatase non-receptor type 1 (Homo sapiens, UniProt P18031)
# T1 sequence (P18031 whole entry): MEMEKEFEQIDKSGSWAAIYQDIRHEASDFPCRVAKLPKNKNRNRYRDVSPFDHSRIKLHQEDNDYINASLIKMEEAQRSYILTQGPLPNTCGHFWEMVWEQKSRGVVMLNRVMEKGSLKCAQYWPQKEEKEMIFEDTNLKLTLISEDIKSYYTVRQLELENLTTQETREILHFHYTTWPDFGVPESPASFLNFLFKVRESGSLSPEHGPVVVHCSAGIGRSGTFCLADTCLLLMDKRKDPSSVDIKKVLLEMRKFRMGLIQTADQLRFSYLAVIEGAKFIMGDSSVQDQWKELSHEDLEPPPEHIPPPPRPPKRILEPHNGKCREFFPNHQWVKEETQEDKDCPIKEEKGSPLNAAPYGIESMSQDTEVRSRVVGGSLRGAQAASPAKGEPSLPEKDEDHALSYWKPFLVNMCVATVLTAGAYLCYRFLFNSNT
# Test: Inhibition of human PTP1B
row,SMILES,pIC50
1,O=C1Oc2cc(O)c3c(c2[C@@]12c1c(O)cc(O)cc1O[C@@H]2c1ccc(O)cc1)O[C@H](c1ccc(O)cc1)[C@H](O)C3,5.09
2,O=C1Oc2cc(O)c3c(c2[C@@]12c1c(O)cc(O)cc1O[C@H]2c1ccc(O)cc1)O[C@H](c1ccc(O)cc1)[C@@H](O)C3,5.34
3,O=C1Oc2cc(O)c3c(c2[C@]12c1c(O)cc(O)cc1O[C@H]2c1ccc(O)cc1)O[C@H](c1ccc(O)cc1)[C@@H](O)C3,4.95
4,O=C1Oc2cc(O)c3c(c2[C@]12c1c(O)cc(O)cc1O[C@@H]2c1ccc(O)cc1)O[C@H](c1ccc(O)cc1)[C@@H](O)C3,5.48
5,O=C1Oc2cc(O)c3c(c2[C@@]12c1c(O)cc(O)cc1O[C@@H]2c1ccc(O)cc1)O[C@H](c1ccc(O)cc1)[C@@H](O)C3,4.77
6,O=C1Oc2cc(O)c3c(c2[C@]12c1c(O)cc(O)cc1O[C@@H]2c1ccc(O)cc1)O[C@H](c1ccc(O)cc1)[C@H](O)C3 [LARIXINOL],4.89
